Laboratory results as given in paper PMC9403976, “Elucidating the path to Plasmodium prolyl-tRNA synthetase inhibitors that overcome halofuginone resistance” (Nature Communications, 2022).
“And” between values parts separate entries of the source, which are not always exact repeats. Equal values may be shown once. Read-outs that look alike come from different tables or passages of the source.

Assays:
P. falciparum Dd2-2D4 = assay: P. falciparum asexual blood stage (ABS) growth assay, SYBR Green, 72 h, wild-type parasites; format: cell-based, Plasmodium falciparum; conditions: Plasmodium falciparum, DD2; SI Fig 16b; values on -log scale; read-out: ABS - Dd2-2D4 (converted)
PfcProRS = biological target: T1, PfcProRS (Plasmodium falciparum, UniProt Q8I5R7); format: binding; conditions: for dose-response signal (normalized), SI Fig 8: single replicates; for Normalized response, dose-response replicates (SI Fig 14): replicates 1-3
T1 construct: made in house; host or cells: E. coli SoluBL-21
T1 sequence (Q8I5R7 249-746): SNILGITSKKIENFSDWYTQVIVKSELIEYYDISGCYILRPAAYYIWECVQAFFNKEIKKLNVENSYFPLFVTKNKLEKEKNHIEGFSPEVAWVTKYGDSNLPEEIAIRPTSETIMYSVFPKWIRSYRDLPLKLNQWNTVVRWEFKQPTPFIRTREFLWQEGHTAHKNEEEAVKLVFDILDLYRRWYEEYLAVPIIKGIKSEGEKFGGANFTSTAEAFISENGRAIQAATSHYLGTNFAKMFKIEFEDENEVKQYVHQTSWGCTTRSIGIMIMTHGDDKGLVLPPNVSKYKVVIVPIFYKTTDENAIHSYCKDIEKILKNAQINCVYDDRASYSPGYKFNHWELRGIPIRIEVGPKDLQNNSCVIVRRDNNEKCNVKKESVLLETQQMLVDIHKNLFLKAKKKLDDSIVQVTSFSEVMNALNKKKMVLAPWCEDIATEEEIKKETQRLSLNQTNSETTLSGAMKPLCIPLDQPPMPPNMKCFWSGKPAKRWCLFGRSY

HsProRS = HsProRS (Homo sapiens, UniProt P07814); assay: TR-FRET ligand displacement assay with tracer MAT379 (CoraFluor-1-Halo and anti-His6 antibody formats); format: binding; parameters: made in house; host or cells: E. coli SoluBL-21; conditions: for TR-FRET dose-response, normalized signal (SI Fig 11): individual replicates
HsProRS, sequence (P07814 996-1512): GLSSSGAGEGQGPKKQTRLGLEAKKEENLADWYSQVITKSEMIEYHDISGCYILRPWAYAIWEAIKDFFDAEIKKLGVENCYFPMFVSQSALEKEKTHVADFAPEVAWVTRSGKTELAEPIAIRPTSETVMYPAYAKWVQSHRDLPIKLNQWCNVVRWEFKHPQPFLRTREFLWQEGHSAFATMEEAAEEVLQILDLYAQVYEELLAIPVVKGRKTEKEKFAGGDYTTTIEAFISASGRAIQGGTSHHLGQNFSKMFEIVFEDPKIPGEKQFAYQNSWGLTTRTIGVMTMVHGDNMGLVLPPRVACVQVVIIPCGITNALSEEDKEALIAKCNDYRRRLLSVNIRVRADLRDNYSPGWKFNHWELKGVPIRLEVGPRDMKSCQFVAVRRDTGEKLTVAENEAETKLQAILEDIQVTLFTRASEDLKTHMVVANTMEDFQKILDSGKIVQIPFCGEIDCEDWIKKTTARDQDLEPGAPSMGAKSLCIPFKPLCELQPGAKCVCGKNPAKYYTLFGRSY

NC(=O)Nc1nccnc1C(=O)NC1Cc2ccccc2C1 [compound 23]
EC50 (P. falciparum Dd2-2D4): 12.1 µM
dose-response signal (normalized), SI Fig 8 (PfcProRS; Log[inhibitor] (M) -5.000): 9.53E-01 and 9.58E-01 and 9.22E-01
dose-response signal (normalized), SI Fig 8 (PfcProRS; Log[inhibitor] (M) -5.301): 9.58E-01 and 1.12E+00 and 1.10E+00
dose-response signal (normalized), SI Fig 8 (PfcProRS; Log[inhibitor] (M) -5.601): 1.05E+00 and 1.01E+00 and 9.67E-01
dose-response signal (normalized), SI Fig 8 (PfcProRS; Log[inhibitor] (M) -5.904): 9.75E-01 and 1.01E+00 and 9.11E-01
dose-response signal (normalized), SI Fig 8 (PfcProRS; Log[inhibitor] (M) -6.208): 1.13E+00 and 1.21E+00 and 1.04E+00
dose-response signal (normalized), SI Fig 8 (PfcProRS; Log[inhibitor] (M) -6.509): 1.02E+00 and 1.09E+00 and 1.04E+00
dose-response signal (normalized), SI Fig 8 (PfcProRS; Log[inhibitor] (M) -6.796): 1.08E+00 and 1.02E+00 and 1.06E+00
dose-response signal (normalized), SI Fig 8 (PfcProRS; Log[inhibitor] (M) -7.108): 9.85E-01 and 1.02E+00 and 9.97E-01
dose-response signal (normalized), SI Fig 8 (PfcProRS; Log[inhibitor] (M) -7.409): 9.53E-01 and 1.06E+00 and 1.07E+00
dose-response signal (normalized), SI Fig 8 (PfcProRS; Log[inhibitor] (M) -7.710): 9.44E-01 and 1.06E+00 and 1.08E+00
dose-response signal (normalized), SI Fig 8 (PfcProRS; Log[inhibitor] (M) -8.000): 9.87E-01 and 9.72E-01 and 1.16E+00
dose-response signal (normalized), SI Fig 8 (PfcProRS; Log[inhibitor] (M) -8.301): 1.10E+00 and 1.12E+00 and 1.02E+00
dose-response signal (normalized), SI Fig 8 (PfcProRS; Log[inhibitor] (M) -8.602): 9.87E-01 and 1.09E+00 and 1.12E+00
dose-response signal (normalized), SI Fig 8 (PfcProRS; Log[inhibitor] (M) -9.000): 1.08E+00 and 9.51E-01 and 1.17E+00
dose-response signal (normalized), SI Fig 8 (PfcProRS; Log[inhibitor] (M) -9.301): 9.82E-01 and 1.20E+00 and 1.04E+00
IC50 (HsProRS): > 10 µM
HsProRS % signal at 10 μM, + 100 μM proline (HsProRS; + 100 μM proline, 10 μM): 78.4%
normalized TR-FRET ligand displacement signal, dose-response replicates (SI Fig 6) (HsProRS; Log[inhibitor] (M) -5.000): 9.23E-01 and 9.68E-01 and 8.88E-01
TR-FRET dose-response, normalized signal (SI Fig 11) (HsProRS; Log[inhibitor] (M) -5.000): 8.87E-01 and 8.66E-01 and 9.17E-01
normalized TR-FRET ligand displacement signal, dose-response replicates (SI Fig 6) (HsProRS; Log[inhibitor] (M) -5.301): 9.33E-01 (2×) and 1.11E+00
TR-FRET dose-response, normalized signal (SI Fig 11) (HsProRS; Log[inhibitor] (M) -5.301): 9.05E-01 and 8.98E-01 and 9.19E-01
normalized TR-FRET ligand displacement signal, dose-response replicates (SI Fig 6) (HsProRS; Log[inhibitor] (M) -5.601): 9.64E-01 and 1.03E+00 and 9.59E-01
TR-FRET dose-response, normalized signal (SI Fig 11) (HsProRS; Log[inhibitor] (M) -5.601): 9.98E-01 and 9.77E-01 and 1.05E+00
normalized TR-FRET ligand displacement signal, dose-response replicates (SI Fig 6) (HsProRS; Log[inhibitor] (M) -5.904): 1.09E+00 and 1.01E+00 and 9.81E-01
TR-FRET dose-response, normalized signal (SI Fig 11) (HsProRS; Log[inhibitor] (M) -5.904): 1.00E+00 and 9.89E-01 and 1.01E+00
normalized TR-FRET ligand displacement signal, dose-response replicates (SI Fig 6) (HsProRS; Log[inhibitor] (M) -6.208): 9.87E-01 and 1.09E+00 and 1.03E+00
TR-FRET dose-response, normalized signal (SI Fig 11) (HsProRS; Log[inhibitor] (M) -6.208): 9.53E-01 and 1.02E+00 and 9.38E-01
normalized TR-FRET ligand displacement signal, dose-response replicates (SI Fig 6) (HsProRS; Log[inhibitor] (M) -6.509): 9.55E-01 and 1.02E+00 and 8.65E-01
TR-FRET dose-response, normalized signal (SI Fig 11) (HsProRS; Log[inhibitor] (M) -6.509): 1.01E+00 and 1.02E+00 and 9.66E-01
normalized TR-FRET ligand displacement signal, dose-response replicates (SI Fig 6) (HsProRS; Log[inhibitor] (M) -6.796): 1.06E+00 and 9.70E-01 and 9.00E-01
TR-FRET dose-response, normalized signal (SI Fig 11) (HsProRS; Log[inhibitor] (M) -6.796): 1.06E+00 and 1.02E+00 and 1.01E+00
normalized TR-FRET ligand displacement signal, dose-response replicates (SI Fig 6) (HsProRS; Log[inhibitor] (M) -7.108): 9.62E-01 and 9.53E-01 and 1.03E+00
TR-FRET dose-response, normalized signal (SI Fig 11) (HsProRS; Log[inhibitor] (M) -7.108): 9.79E-01 and 1.00E+00 and 1.02E+00
normalized TR-FRET ligand displacement signal, dose-response replicates (SI Fig 6) (HsProRS; Log[inhibitor] (M) -7.409): 9.73E-01 and 9.58E-01 and 1.07E+00
TR-FRET dose-response, normalized signal (SI Fig 11) (HsProRS; Log[inhibitor] (M) -7.409): 1.02E+00 (2×) and 1.04E+00
normalized TR-FRET ligand displacement signal, dose-response replicates (SI Fig 6) (HsProRS; Log[inhibitor] (M) -7.710): 1.04E+00 and 9.48E-01 and 1.10E+00
TR-FRET dose-response, normalized signal (SI Fig 11) (HsProRS; Log[inhibitor] (M) -7.710): 1.01E+00 and 1.04E+00 and 9.76E-01
normalized TR-FRET ligand displacement signal, dose-response replicates (SI Fig 6) (HsProRS; Log[inhibitor] (M) -8.000): 1.00E+00 (2×) and 1.06E+00
TR-FRET dose-response, normalized signal (SI Fig 11) (HsProRS; Log[inhibitor] (M) -8.000): 9.60E-01 and 1.00E+00 (2×)
normalized TR-FRET ligand displacement signal, dose-response replicates (SI Fig 6) (HsProRS; Log[inhibitor] (M) -8.301): 9.32E-01 and 1.07E+00 and 9.64E-01
TR-FRET dose-response, normalized signal (SI Fig 11) (HsProRS; Log[inhibitor] (M) -8.301): 1.00E+00 and 9.88E-01 and 1.08E+00
normalized TR-FRET ligand displacement signal, dose-response replicates (SI Fig 6) (HsProRS; Log[inhibitor] (M) -8.602): 1.06E+00 and 1.00E+00 and 1.07E+00
TR-FRET dose-response, normalized signal (SI Fig 11) (HsProRS; Log[inhibitor] (M) -8.602): 1.00E+00 and 1.01E+00 and 9.76E-01
normalized TR-FRET ligand displacement signal, dose-response replicates (SI Fig 6) (HsProRS; Log[inhibitor] (M) -9.000): 1.03E+00 (2×) and 9.79E-01
TR-FRET dose-response, normalized signal (SI Fig 11) (HsProRS; Log[inhibitor] (M) -9.000): 1.00E+00 and 9.57E-01 and 9.73E-01
normalized TR-FRET ligand displacement signal, dose-response replicates (SI Fig 6) (HsProRS; Log[inhibitor] (M) -9.301): 1.02E+00 (2×) and 9.65E-01
TR-FRET dose-response, normalized signal (SI Fig 11) (HsProRS; Log[inhibitor] (M) -9.301): 9.83E-01 and 9.76E-01 and 9.75E-01
HsProRS % signal at 10 μM (HsProRS; no added proline/ATP (-), 10 μM): 89.0%
IC50 (HsProRS; read-out: HsProRS IC50 + 100 μM proline, + 100 μM proline): > 10 µM

CC(C)(C)OC(=O)NCCCCCC(=O)NCC1CCN(C(=O)Nc2nccnc2C(=O)NC2Cc3ccccc3C2)CC1 [compound 43]
EC50 (P. falciparum Dd2-2D4): 3.33 µM
Normalized response, dose-response replicates (SI Fig 14) (PfcProRS; Log[inhibitor] (M) -5.000): 3.94E-01 and 2.57E-01 and 2.74E-01
Normalized response, dose-response replicates (SI Fig 14) (PfcProRS; Log[inhibitor] (M) -5.301): 4.70E-01 and 4.27E-01 and 4.95E-01
Normalized response, dose-response replicates (SI Fig 14) (PfcProRS; Log[inhibitor] (M) -5.601): 6.21E-01 and 6.23E-01 and 5.88E-01
Normalized response, dose-response replicates (SI Fig 14) (PfcProRS; Log[inhibitor] (M) -5.904): 7.25E-01 and 7.36E-01 and 7.34E-01
Normalized response, dose-response replicates (SI Fig 14) (PfcProRS; Log[inhibitor] (M) -6.208): 8.39E-01 and 7.98E-01 and 7.48E-01
Normalized response, dose-response replicates (SI Fig 14) (PfcProRS; Log[inhibitor] (M) -6.509): 9.01E-01 and 9.26E-01 and 9.21E-01
Normalized response, dose-response replicates (SI Fig 14) (PfcProRS; Log[inhibitor] (M) -6.796): 8.44E-01 and 9.34E-01 and 8.61E-01
Normalized response, dose-response replicates (SI Fig 14) (PfcProRS; Log[inhibitor] (M) -7.108): 8.07E-01 and 9.41E-01 and 7.86E-01
Normalized response, dose-response replicates (SI Fig 14) (PfcProRS; Log[inhibitor] (M) -7.409): 8.06E-01 and 8.12E-01 and 9.38E-01
Normalized response, dose-response replicates (SI Fig 14) (PfcProRS; Log[inhibitor] (M) -7.710): 9.31E-01 and 8.84E-01 and 7.70E-01
Normalized response, dose-response replicates (SI Fig 14) (PfcProRS; Log[inhibitor] (M) -8.000): 9.59E-01 and 9.87E-01 and 9.57E-01
Normalized response, dose-response replicates (SI Fig 14) (PfcProRS; Log[inhibitor] (M) -8.301): 1.01E+00 and 8.79E-01 and 9.74E-01
Normalized response, dose-response replicates (SI Fig 14) (PfcProRS; Log[inhibitor] (M) -8.602): 9.04E-01 and 9.28E-01 and 9.93E-01
Normalized response, dose-response replicates (SI Fig 14) (PfcProRS; Log[inhibitor] (M) -9.000): 8.86E-01 and 8.79E-01 and 9.68E-01
Normalized response, dose-response replicates (SI Fig 14) (PfcProRS; Log[inhibitor] (M) -9.301): 8.43E-01 and 8.23E-01 and 8.26E-01
PfcProRS -- best Kd (PfcProRS; SI Fig 16a, values on -log scale): 6.495
Kd (HsProRS; HsProRS (KD [nM]) + 100 μM proline mean, + 100 μM proline): 2280 nM
Kd (HsProRS; HsProRS (KD [nM]) mean, no added proline/ATP (-)): 611 nM
